In PubChem BioAssay (NCI):
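Test compounds were applied to cells in 96-well plates for 48 hours at 5 doses. GI50: concentration for 50% inhibition of growth. TGI marks complete inhibition of growth.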

Assays:
Experiment in all cases: NCI anticancer screen, dose series, 48 h
786-0 renal = test system: 786-0 renal
A498 renal = test system: A498 renal
A549 NSCLC = test system: A549 NSCLC
ACHN renal = test system: ACHN renal
BT-549 breast = test system: BT-549 breast
CAKI-1 renal = test system: CAKI-1 renal
CCRF-CEM leukemia = test system: CCRF-CEM leukemia
COLO 205 colon = test system: COLO 205 colon
DU-145 prostate = test system: DU-145 prostate
EKVX NSCLC = test system: EKVX NSCLC
HCC-2998 colon = test system: HCC-2998 colon
HCT-116 colon = test system: HCT-116 colon
HCT-15 colon = test system: HCT-15 colon
HL-60(TB) leukemia = test system: HL-60(TB) leukemia
HOP-62 NSCLC = test system: HOP-62 NSCLC
HOP-92 NSCLC = test system: HOP-92 NSCLC
HS 578T breast = test system: HS 578T breast
HT29 colon = test system: HT29 colon
IGROV1 ovarian = test system: IGROV1 ovarian
K-562 leukemia = test system: K-562 leukemia
KM12 colon = test system: KM12 colon
LOX IMVI melanoma = test system: LOX IMVI melanoma
M14 melanoma = test system: M14 melanoma
MALME-3M melanoma = test system: MALME-3M melanoma
MCF7 breast = test system: MCF7 breast
MDA-MB-231 breast = test system: MDA-MB-231 breast
MDA-MB-435 = test system: MDA-MB-435
MDA-MB-468 breast = test system: MDA-MB-468 breast
MOLT-4 leukemia = test system: MOLT-4 leukemia

Q: How did the GI50 (786-0 renal) turn out when `COc1cc(/C=C/C(=O)c2ccc(C)cc2)ccc1Oc1nc(Nc2ccc(F)cc2)nc(N(C)C)n1` was run?
A: 13.3 µM

Q: What about the TGI (786-0 renal) of the same compound?
A: 53.6 µM

Q: And the GI50 (A498 renal)?
A: 41.8 µM

Q: And the TGI (A498 renal)?
A: > 100 µM

Q: What about the GI50 (A549 NSCLC) of the same compound?
A: 45.8 µM

Q: And the TGI (A549 NSCLC)?
A: > 100 µM

Q: And the GI50 (ACHN renal)?
A: 9.58 µM

Q: What about the TGI (ACHN renal) of the same compound?
A: 30.7 µM

Q: And the GI50 (BT-549 breast)?
A: 6.27 µM

Q: And the TGI (BT-549 breast)?
A: 26.8 µM

Q: And the GI50 (CAKI-1 renal)?
A: 6.43 µM

Q: And the TGI (CAKI-1 renal)?
A: > 100 µM

Q: What about the GI50 (CCRF-CEM leukemia) of the same compound?
A: 3.92 µM

Q: And the TGI (CCRF-CEM leukemia)?
A: > 100 µM

Q: What about the GI50 (COLO 205 colon) of the same compound?
A: 41.7 µM

Q: And the TGI (COLO 205 colon)?
A: > 100 µM

Q: And the GI50 (DU-145 prostate)?
A: 25.8 µM

Q: And the TGI (DU-145 prostate)?
A: > 100 µM

Q: What about the GI50 (EKVX NSCLC) of the same compound?
A: 6.71 µM

Q: What about the TGI (EKVX NSCLC) of the same compound?
A: > 100 µM

Q: What about the GI50 (HCC-2998 colon) of the same compound?
A: 20.5 µM

Q: And the TGI (HCC-2998 colon)?
A: 73.4 µM

Q: What about the GI50 (HCT-116 colon) of the same compound?
A: 2.28 µM

Q: And the TGI (HCT-116 colon)?
A: 5.85 µM

Q: What about the GI50 (HCT-15 colon) of the same compound?
A: 4.73 µM

Q: What about the TGI (HCT-15 colon) of the same compound?
A: 16.8 µM

Q: And the GI50 (HL-60(TB) leukemia)?
A: 19.1 µM

Q: What about the TGI (HL-60(TB) leukemia) of the same compound?
A: > 100 µM

Q: And the GI50 (HOP-62 NSCLC)?
A: 32.2 µM

Q: What about the TGI (HOP-62 NSCLC) of the same compound?
A: > 100 µM

Q: What about the GI50 (HOP-92 NSCLC) of the same compound?
A: 4.57 µM

Q: And the TGI (HOP-92 NSCLC)?
A: 57.3 µM

Q: What about the GI50 (HS 578T breast) of the same compound?
A: 7.24 µM

Q: What about the TGI (HS 578T breast) of the same compound?
A: 89.5 µM

Q: What about the GI50 (HT29 colon) of the same compound?
A: 8.15 µM

Q: And the TGI (HT29 colon)?
A: 37.5 µM

Q: What about the GI50 (IGROV1 ovarian) of the same compound?
A: 13.8 µM

Q: What about the TGI (IGROV1 ovarian) of the same compound?
A: 36.9 µM

Q: What about the GI50 (K-562 leukemia) of the same compound?
A: 4.2 µM

Q: And the TGI (K-562 leukemia)?
A: > 100 µM

Q: What about the GI50 (KM12 colon) of the same compound?
A: 19.3 µM

Q: What about the TGI (KM12 colon) of the same compound?
A: > 100 µM

Q: And the GI50 (LOX IMVI melanoma)?
A: 1.84 µM

Q: What about the TGI (LOX IMVI melanoma) of the same compound?
A: 3.51 µM

Q: What about the GI50 (M14 melanoma) of the same compound?
A: 14.7 µM

Q: What about the TGI (M14 melanoma) of the same compound?
A: 54.3 µM

Q: And the GI50 (MALME-3M melanoma)?
A: 15.4 µM

Q: And the TGI (MALME-3M melanoma)?
A: 33.3 µM

Q: What about the GI50 (MCF7 breast) of the same compound?
A: 3.57 µM

Q: And the TGI (MCF7 breast)?
A: 20.2 µM

Q: What about the GI50 (MDA-MB-231 breast) of the same compound?
A: 5.24 µM

Q: What about the TGI (MDA-MB-231 breast) of the same compound?
A: 18.7 µM

Q: What about the GI50 (MDA-MB-435) of the same compound?
A: 11.4 µM

Q: What about the TGI (MDA-MB-435) of the same compound?
A: 28.4 µM

Q: And the GI50 (MDA-MB-468 breast)?
A: 4.64 µM

Q: And the TGI (MDA-MB-468 breast)?
A: 31.8 µM

Q: And the GI50 (MOLT-4 leukemia)?
A: 2.8 µM

Q: And the TGI (MOLT-4 leukemia)?
A: 27.7 µM
